Data published in patent publication EP1101496A1, “THERAPEUTIC AGENTS FOR ALLERGIC DISEASES” (FUJI YAKUHIN KOGYO KABUSHIKI KAISHA, priority 1998, dated 2000).

What was measured:
[1] = test system: IgE-mediated auricle edema; experiment: Auricle edema in experimental atopic dermatitis model (anti-DNP IgE sensitization, DNFB elicitation); type: in vivo, Balb/c mice; conditions: Compound Nos. 8 and 10 60 mg/kg s.c., prednisolone 10 mg/kg i.p.
Method: Intravenous injection of an anti-2,4-dinitrophenol (DNP) antibody (anti-DNP Ab, monoclonal IgE Ab; its antibody titer was 1 : 512 to 1 : 1024 by a rat heterologous passive cutaneous anaphylaxis reaction using a Wister rat) into a tail vein of female Balb/c mice (7-week old, body weight: 17 to 20 g, purchased from JAPAN SLC, Inc.) at a dose of […] per animal raised passive sensitization. Twenty four hours post-sensitization, 0.1% 2,4-dinitrofluorobenzene (DNFB; Nacalai Tesque, Inc.) in ethanol was painted onto both sides of a pair of mouse auricles at a dose of 10 µL per each side for elicitation.
Fresh unsensitized mice were painted with 0.1% DNFB in ethanol onto their ear in the same manner as aforementioned and served as a control group. Not only immediately prior to elicitation but also 1 hour, 5 hours, daily between Days 1 and 14, and on Day 16 post-elicitation, ear thickness was measured using a dial thickness gauge (Peacock Co.). Each degree of auricle edemas was calculated: Auricular Edema (µm)=(Ear Thickness Post-Elicitation, µm) - (Ear Thickness immediately prior to Elicitation, µm) [formula]
Balb/c mice were passively sensitized with anti-DNP IgE Ab in the same manner as in Example 1. Twenty four hours later, 0.1% DNFB in ethanol was painted onto both sides of a pair of mouse auricles at a dose of 10 µL per each side for elicitation.
Immediately prior to elicitation, 1 hour and on Day 1 post-elicitation, auricle thickness was measured in the same manner as in Example 1. Each therapeutic efficacy is recorded as a percent inhibition wherein the "auricle edema (untreated group)" is used as a control. Auricle Edema Inhibition (%) = [ 1 -(Auricle Edema (Treated Group))/(Auricle Edema (Untreated Group))] × 100 (%) [formula]
(§1) Mice were sensitized with anti-DNP IgE Ab and then elicited by painting 0.1% DNFB in ethanol onto both sides of a pair of mouse auricles at a dose of 10 µL per each side 24 hours post-sensitization in the same manner as in Example 1. […] Immediately prior to elicitation, and on Day 7 post-elicitation, auricle thickness was similarly measured. Each therapeutic efficacy is recorded as a percent inhibition wherein the auricle edema in the untreated group is used as a control.
as §1, with “(untreated group)” for “in the untreated group”
Mice were sensitized with anti-DNP IgE Ab and then elicited by painting 0.1% DNFB in ethanol onto both sides of a pair of mouse auricles at a dose of 10 µL per each side 24 hours post-sensitization in the same manner as in Example 1. […] Immediately prior to elicitation, at 1 and 4 hours and on Days 1, 3 and 7 post-elicitation, auricle thickness was similarly measured. From each auricle edema (µm) based on the auricle thickness immediately prior to elicitation, especially a prophylactically therapeutic efficacy of the test compound was evaluated.
Mice were sensitized with anti-DNP IgE Ab and then elicited by painting 0.1% DNFB in ethanol onto both sides of a pair of mouse auricles at a dose of 10 µL per each side 24 hours post-sensitization in the same manner as in Example 1. A solution of a test metalloproteinase inhibitor (Compound No. 8; 50 µg/ear/dose, twice a day) in ethanol was painted onto both sides of a pair of the mouse auricles 1 hour pre-elicitation, 0.25, 3, 4, 5 and 6 days post-elicitation (5 animals per group). Immediately prior to elicitation, at 0.5, 1 and 4 hours and on Days 1, 3 and 7 post-elicitation, auricle thickness was similarly measured. Each amount of auricle edemas was calculated (average± standard deviation). […]

[2] = Mouse body weight gain (side-effect index); type: in vivo, mice; conditions: average ± standard deviation; once a day Days 0-5; Compound No. 8 or 10 60 mg/kg s.c., prednisolone 10 mg/kg i.p.
Method: Next the mice were measured for their body weight.

[3] = test system: Experimental Bronchial Asthma Model; experiment: Experimental bronchial asthma model (ovalbumin-sensitized, airway resistance and asthmatic death); type: in vivo, Guinea pigs; conditions: for % Survival: asthmatic death within several minutes after elicitation
Method: Guinea pigs (female, Std:Hartley, 3 weeks old, 200 to 250 g) were individually housed in a plastic chamber (width, 200 mm; depth, 300 mm; height, 167 mm). Aqueous ovalbumin (10 mg/mL) was administered to the guinea pigs once a day for sensitization by 10 min. inhalation with a nebulizer (5B, Nippon Shoji K.K.: flow rate, 6 L/min.) at a dose of 10 mg/mL during 8 cosecutive days. On Day 7 after the final sensitization, the guinea pigs were housed in a plastic chamber and inhaled using a nebulizer with a solution of ovalbumin (10 mg/mL) in physiological saline for 1 min. for elicitation (Matsumoto, T., et al., The Journal of Pharmacology and Experimental Therapeutics, 269: 1236-1244, 1994). The number of animals employed in the experiment was set to the extent there are at least 6 as individuals escaping asthmatic death. A solution of a test metalloproteinase inhibitor (Compound No. 8, 15 mg/kg) in water for injection was administered subcutaneously twice, i.e., 24 hours and 2 hours prior to elicitation. Similarly, the solvent alone was also administered to a negative control group. A suspension of prednisolone (10 mg/kg) in 0.5% aqueous methyl cellulose was administered orally twice, i.e., 24 hours and 2 hours prior to elicitation. Similarly, the solvent alone was also administered to another control group.
The evaluation for efficacies was conducted in terms of airway resistance. For this purpose, an apparatus dedicated to the measurement of airway resistance (K.K. Medical Agent) was employed. Measurement includes setting a guinea pig in a test chamber under a not-anesthetized condition, applying sinusoidal pressure waves of 30 Hz components to a part below the neck of the animal from the back side of the chamber, measuring respiratory waves of 30 Hz components leaking through the mouth (volume of 30 Hz air flow passing through the respiratory tract) in front of the neck, and calculating airway resistance mechanically. Measurement was carried out immediately prior to the first drug treatment (24 hours before elicitation), just prior to elicitation, 10 minutes, 1, 2, 4, 6, and 8 hours post-elicitation.
It was visually observed by a person carrying out said test in terms of the appearance of cyanosis or suffocative death (asthmatic death) due to respiratory obstruction.
Guinea pigs were sensitized with ovalbumin and asthma was induced on Day 7 after final sensitization in the same manner as in Example 18. The number of animals employed in the experiment was set to the extent there are at least 6 as individuals escaping asthmatic death (8 to 11 animals/group). In the same manner as in Example 18, the animals were measured for airway resistance mechanically and each percent change (%) in airway resistance was calculated (each value just prior to elicitation was set as 100%). Each percent amelioration in airway resistance was calculated from the percent changes in airway resistance according to the following formula: Amelioration in Airway Resistance (%) = 1 -[((Percent Change in Airway Resistance after Drug-Administration)-(Value just prior to Challenge (100)))/((Percent Change in Airway Resistance after Solvent -Administration)-(Value just prior to Challenge (100)))]× 100 [formula]
A solution of a test metalloproteinase inhibitor (Compound No. 22: 15 mg/kg or 30 mg/kg) in water for injection or the solvent alone as a negative control was administered to each animal subcutaneously twice, i.e., 24 hours and 2 hours prior to elicitation.

[4] = Body weight gain in sensitized mice (experimental atopic dermatitis model); type: in vivo; conditions: painted on auricles twice a day; Compound No. 8 50 µg/ear/dose, prednisolone 5 µg/ear/dose; Days 1, 4 and 7; versus solvent control (ethanol)
Method: Experimental atopic dermatitis model mice sensitized in the same manner as in Example 1 were examined for influence on body weight gains.
A solution of a test metalloproteinase inhibitor (Compound No. 8; 50 µg/ear/dose, twice a day) in ethanol or a solution of prednisolone (5 µg/ear/dose, twice a day) in ethanol was administered to mice (5 animals per group) by painting onto both sides of a pair of the auricles, not only one hour prior to elicitation but also 0.25, 3, 4, 5 and 6 days post-elicitation. Each mouse was measured for its body weight not only immediately before the start in painting but also on Days 1, 4 and 7 after the start in painting. Each gain in body weight was calculated and considered to indicate an effect on body weight changes affected by said treatments.

[5] = Compound No. 22 15 mg/kg s.c., prednisolone 10 mg/kg orally
[6] = suffocative death due to cyanosis just after elicitation, Compound No. 8 15 mg/kg s.c., prednisolone 10 mg/kg orally, 24 and 2 hours prior to elicitation

| SMILES | % Inhibition IPR ([1]; auricle edema 1 hour post-elicitation, treatment 24 & 2 hours prior to DNFB-elicitation) [%] | % Inhibition LPR ([1]; auricle edema Day 1 post-elicitation, treatment 24 & 2 hours prior to DNFB-elicitation) [%] | % Inhibition vLPR ([1]; auricle edema Day 7 post-elicitation, daily from 3 to 6 days after DNFB-elicitation) [%] | Body Weight Gain, Day 5 [2] | Body Weight Gain, Day 7 [2] | Body Weight Gain, Day 10 [2] | % Amelioration in Airway Resistance, 1 Hour ([3]; 1 hour after elicitation, Compound No. 22 15 mg/kg s.c., prednisolone 10 mg/kg orally) [%] | % Amelioration in Airway Resistance, 6 Hours ([3]; 6 hours after elicitation, Compound No. 22 15 mg/kg s.c., prednisolone 10 mg/kg orally) [%] | % Amelioration in Airway Resistance, Immediately after Elicitation ([3]; Compound No. 22 15 mg/kg s.c., prednisolone 10 mg/kg orally, 24 and 2 hours prior to elicitation) [%] | cyanosis ([3]; after elicitation, s.c. administration) | % Survival [3, 5] [%] | gain in body weight (FIG. 9) [4] | % Mortality [3, 6] [%] | (Dead Animals)/(Tested Animals) [3, 6] |
| --- | --- | --- | --- | --- | --- | --- | --- | --- | --- | --- | --- | --- | --- | --- |
| CC(=O)O.CNC(=O)[C@H](Cc1ccc(CNC(C)=N)cc1)NC(=O)[C@H](CC(C)C)C(CCCc1ccccc1)C(=O)NO (single isomer, unassigned) [Compound No. 10, N-[4-(N-hydroxyamino)-2(R)-isobutyl-3(R or S)-(3-phenyltrimethylene)succinyl]-L-4'-acetimidoyliminomethylenephenylalanine-N-methylamide 1 acetate] | 38.2 | 39.2 | 44.7 | 1.08± 0.39 | 1.62± 0.26 | 1.40± 0.30 | – | – | – | – | – | – | – | – |
| CC(=O)O.CNC(=O)[C@H](Cc1ccc(NC(=N)N)cc1)NC(=O)[C@@H](CC(=O)NO)CC(C)C [Compound No. 22, N-[4-(N-hydroxyamino)-2(R)-isobutylsuccinyl]-L-4'-guanidophenylalanine-N-methylamide 1 acetate] | – | – | – | – | – | – | 56.4 | 102.2 | 12.3 | moderation in cyanosis is also observed | 88.9 | – | – | – |
| C[C@]12C=CC(=O)C=C1CC[C@@H]1[C@@H]2[C@@H](O)C[C@@]2(C)[C@H]1CC[C@]2(O)C(=O)CO [Prednisolone, prednisolone, reference compound] | – | – | – | 0.00± 0.26 | 0.03± 0.57 | 0.97± 0.47 | – | – | – | – | 75.0 | below that in the solvent control group | 22.2 | 2/9 |
